Measurements as given in PubChem BioAssay AID1963975 (Molecular Pharmacology Branch, DTP, NCI, 2024).

Tested on: 624824-186-R-J2-PDC multicell spheroids, viability
Experiment: Anticancer human tumor 624824-186-R-J2-PDC patient-derived colon adenocarcinoma cell line growth inhibition [PI3K]
Conditions: for IC50: curve of first compound; for viability, T/C: stronger effect = lower value
Outline: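 Tumor cells were combined with HUVEC and MSCs into spheroids, then dosed with PI3K-inhibitor combinations over half-log ranges capped near clinical Cmax or 10 microM.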

[1] = second compound 0.00316 µM, first compound 0.0316 µM
[2] = second compound 0.00316 µM, first compound 0.1 µM
[3] = second compound 0.00316 µM, first compound 0.316 µM
[4] = second compound 0.00316 µM, first compound 1 µM
[5] = second compound 0.00316 µM, first compound 3.16 µM
[6] = second compound 0.00316 µM, first compound 10 µM
[7] = second compound 0.01 µM, first compound 0.0316 µM
[8] = second compound 0.01 µM, first compound 0.1 µM
[9] = second compound 0.01 µM, first compound 0.316 µM
[10] = second compound 0.01 µM, first compound 1 µM
[11] = second compound 0.01 µM, first compound 3.16 µM
[12] = second compound 0.01 µM, first compound 10 µM
[13] = second compound 0.0316 µM, first compound 0.0316 µM
[14] = second compound 0.0316 µM, first compound 0.1 µM
[15] = second compound 0.0316 µM, first compound 0.316 µM
[16] = second compound 0.0316 µM, first compound 1 µM
[17] = second compound 0.0316 µM, first compound 3.16 µM
[18] = second compound 0.0316 µM, first compound 10 µM
[19] = second compound 0.1 µM, first compound 0.0316 µM
[20] = second compound 0.1 µM, first compound 0.1 µM
[21] = second compound 0.1 µM, first compound 0.316 µM
[22] = second compound 0.1 µM, first compound 1 µM
[23] = second compound 0.1 µM, first compound 3.16 µM
[24] = second compound 0.1 µM, first compound 10 µM
[25] = second compound 0.316 µM, first compound 0.0316 µM
[26] = second compound 0.316 µM, first compound 0.1 µM
[27] = second compound 0.316 µM, first compound 0.316 µM
[28] = second compound 0.316 µM, first compound 1 µM
[29] = second compound 0.316 µM, first compound 3.16 µM
[30] = second compound 0.316 µM, first compound 10 µM
[31] = second compound 1 µM, first compound 0.0316 µM
[32] = second compound 1 µM, first compound 0.1 µM
[33] = second compound 1 µM, first compound 0.316 µM
[34] = second compound 1 µM, first compound 1 µM
[35] = second compound 1 µM, first compound 3.16 µM
[36] = second compound 1 µM, first compound 10 µM
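Further: spheroids exposed to agents for 7 days before viability read.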
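Wherever viability, T/C is given: 100% = DMSO vehicle treated spheroids.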

CC(C)NCC(C(=O)N1CCN(c2ncnc3c2C(C)CC3O)CC1)c1ccc(Cl)cc1 (stereo not drawn) + COc1c(OCCCN2CCOCC2)ccc2c3n(c(=NC(=O)c4cnc(N)nc4)nc12)CCN3
IC50 (second compound 0.00316 µM): > 10 µM | IC50 (second compound 0.01 µM): > 10 µM | IC50 (second compound 0.0316 µM): > 10 µM | IC50 (second compound 0.1 µM): > 10 µM | IC50 (second compound 0.316 µM): > 10 µM | IC50 (second compound 1 µM): > 10 µM | viability, T/C [1]: 117% | viability, T/C [2]: 85% | viability, T/C [3]: 81.3% | viability, T/C [4]: 89.2% | viability, T/C [5]: 78.7% | viability, T/C [6]: 75.2% | viability, T/C [7]: 97.2% | viability, T/C [8]: 96.4% | viability, T/C [9]: 85.7% | viability, T/C [10]: 77.4% | viability, T/C [11]: 87.4% | viability, T/C [12]: 79.8% | viability, T/C [13]: 91.6% | viability, T/C [14]: 84.5% | viability, T/C [15]: 73.6% | viability, T/C [16]: 89.7% | viability, T/C [17]: 70.5% | viability, T/C [18]: 78.3% | viability, T/C [19]: 76% | viability, T/C [20]: 75.5% | viability, T/C [21]: 68.7% | viability, T/C [22]: 63.2% | viability, T/C [23]: 77.4% | viability, T/C [24]: 64.7% | viability, T/C [25]: 60.1% | viability, T/C [26]: 66% | viability, T/C [27]: 62.1% | viability, T/C [28]: 67.3% | viability, T/C [29]: 62.3% | viability, T/C [30]: 66.3% | viability, T/C [31]: 58.6% | viability, T/C [32]: 54.3% | viability, T/C [33]: 62.4% | viability, T/C [34]: 61.7% | viability, T/C [35]: 65% | viability, T/C [36]: 56.5%

CCN1CCN(Cc2ccc(Nc3ncc(F)c(-c4cc(F)c5nc(C)n(C(C)C)c5c4)n3)nc2)CC1 + COc1c(OCCCN2CCOCC2)ccc2c3n(c(=NC(=O)c4cnc(N)nc4)nc12)CCN3
IC50 (second compound 0.00316 µM): > 1 µM | IC50 (second compound 0.01 µM): > 1 µM | IC50 (second compound 0.0316 µM): > 1 µM | IC50 (second compound 0.1 µM): > 1 µM | IC50 (second compound 0.316 µM): > 1 µM | IC50 (second compound 1 µM): > 1 µM | viability, T/C (second compound 0.00316 µM, first compound 0.00316 µM): 94.1% | viability, T/C (second compound 0.00316 µM, first compound 0.01 µM): 90.4% | viability, T/C [1]: 107% | viability, T/C [2]: 76.5% | viability, T/C [3]: 89.4% | viability, T/C [4]: 106% | viability, T/C (second compound 0.01 µM, first compound 0.00316 µM): 120% | viability, T/C (second compound 0.01 µM, first compound 0.01 µM): 73.7% | viability, T/C [7]: 78.7% | viability, T/C [8]: 75.9% | viability, T/C [9]: 81.7% | viability, T/C [10]: 94.6% | viability, T/C (second compound 0.0316 µM, first compound 0.00316 µM): 91.8% | viability, T/C (second compound 0.0316 µM, first compound 0.01 µM): 99.1% | viability, T/C [13]: 75.3% | viability, T/C [14]: 66.9% | viability, T/C [15]: 80.5% | viability, T/C [16]: 89.9% | viability, T/C (second compound 0.1 µM, first compound 0.00316 µM): 81.1% | viability, T/C (second compound 0.1 µM, first compound 0.01 µM): 63.4% | viability, T/C [19]: 64.6% | viability, T/C [20]: 54.2% | viability, T/C [21]: 68.2% | viability, T/C [22]: 83.8% | viability, T/C (second compound 0.316 µM, first compound 0.00316 µM): 69.1% | viability, T/C (second compound 0.316 µM, first compound 0.01 µM): 57.6% | viability, T/C [25]: 58.9% | viability, T/C [26]: 58.9% | viability, T/C [27]: 69.4% | viability, T/C [28]: 91.8% | viability, T/C (second compound 1 µM, first compound 0.00316 µM): 64.2% | viability, T/C (second compound 1 µM, first compound 0.01 µM): 56.9% | viability, T/C [31]: 61.4% | viability, T/C [32]: 62.9% | viability, T/C [33]: 72.9% | viability, T/C [34]: 88%

Cn1ncc(Cl)c1-c1cc(C(=O)NC(CN)Cc2cccc(F)c2)sc1Cl (stereo not drawn) + COc1c(OCCCN2CCOCC2)ccc2c3n(c(=NC(=O)c4cnc(N)nc4)nc12)CCN3
IC50 (second compound 0.00316 µM): > 10 µM | IC50 (second compound 0.01 µM): 8.26 µM | IC50 (second compound 0.0316 µM): 8.19 µM | IC50 (second compound 0.1 µM): 7.47 µM | IC50 (second compound 0.316 µM): 5.31 µM | IC50 (second compound 1 µM): 4.55 µM | viability, T/C [1]: 86.6% | viability, T/C [2]: 72% | viability, T/C [3]: 90.8% | viability, T/C [4]: 87.7% | viability, T/C [5]: 72.7% | viability, T/C [6]: 50% | viability, T/C [7]: 118% | viability, T/C [8]: 81.2% | viability, T/C [9]: 93.7% | viability, T/C [10]: 81.6% | viability, T/C [11]: 62.6% | viability, T/C [12]: 45.5% | viability, T/C [13]: 86.1% | viability, T/C [14]: 85.5% | viability, T/C [15]: 89.2% | viability, T/C [16]: 74% | viability, T/C [17]: 71% | viability, T/C [18]: 45.4% | viability, T/C [19]: 78.2% | viability, T/C [20]: 81.3% | viability, T/C [21]: 68.3% | viability, T/C [22]: 69.2% | viability, T/C [23]: 64.7% | viability, T/C [24]: 44.9% | viability, T/C [25]: 80.9% | viability, T/C [26]: 66.6% | viability, T/C [27]: 64.7% | viability, T/C [28]: 66.9% | viability, T/C [29]: 63.4% | viability, T/C [30]: 36.3% | viability, T/C [31]: 68.5% | viability, T/C [32]: 58.3% | viability, T/C [33]: 61.6% | viability, T/C [34]: 57.9% | viability, T/C [35]: 57.8% | viability, T/C [36]: 35.8%

Cn1nccc1Nc1nccc(-c2ccn(C(CO)c3ccc(Cl)c(F)c3)c(=O)c2)n1 (stereo not drawn) + COc1c(OCCCN2CCOCC2)ccc2c3n(c(=NC(=O)c4cnc(N)nc4)nc12)CCN3
IC50 (second compound 0.00316 µM): > 10 µM | IC50 (second compound 0.01 µM): > 10 µM | IC50 (second compound 0.0316 µM): 0.37 µM | IC50 (second compound 0.1 µM): 0.138 µM | IC50 (second compound 0.316 µM): 0.0535 µM | IC50 (second compound 1 µM): 0.0374 µM | viability, T/C [1]: 102% | viability, T/C [2]: 86.5% | viability, T/C [3]: 78.2% | viability, T/C [4]: 75.5% | viability, T/C [5]: 82.7% | viability, T/C [6]: 81.2% | viability, T/C [7]: 102% | viability, T/C [8]: 71.9% | viability, T/C [9]: 74.2% | viability, T/C [10]: 67% | viability, T/C [11]: 66.7% | viability, T/C [12]: 50.5% | viability, T/C [13]: 85.7% | viability, T/C [14]: 59% | viability, T/C [15]: 58.9% | viability, T/C [16]: 37.1% | viability, T/C [17]: 33.6% | viability, T/C [18]: 26.5% | viability, T/C [19]: 69.5% | viability, T/C [20]: 53.3% | viability, T/C [21]: 39.1% | viability, T/C [22]: 30.9% | viability, T/C [23]: 26.6% | viability, T/C [24]: 15.6% | viability, T/C [25]: 55.3% | viability, T/C [26]: 42.7% | viability, T/C [27]: 36.3% | viability, T/C [28]: 22.8% | viability, T/C [29]: 15.1% | viability, T/C [30]: 11.8% | viability, T/C [31]: 51.5% | viability, T/C [32]: 42.9% | viability, T/C [33]: 36.8% | viability, T/C [34]: 26.5% | viability, T/C [35]: 14.9% | viability, T/C [36]: 7.14%
